The target in one assay is T1, PHD of ING4 (Homo sapiens, UniProt Q9UNL4).
T1 construct: we did the titration by NMR on a sample of 10 µM PHD of ING4
Description: NMR titration of ING4-PHD with histone H3 peptides (CSP of W237 amide, 1H-15N HSQC). In kind it is binding.

In assay [1] the target is T2, Plant Homeodomain (PHD) of ING4 (uniformly 15N enriched (NMR samples)).
T2 chain: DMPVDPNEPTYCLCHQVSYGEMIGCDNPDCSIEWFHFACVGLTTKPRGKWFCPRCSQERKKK
Description: NMR titration; 10 µM 15N PHD titrated with peptide, 15% Ficoll 70; 20 mM sodium phosphate pH 6.5, 50 mM NaCl, 1 mM DTT, 25 °C; CSP of W237 amide in 1H-15N HSQC, single site fit. The conditions noted are these: both partners purified.

Assay [2] deals with T2, Plant Homeodomain (PHD) of ING4. The assay can be described thus: NMR titration; PHD titrated with peptide, 0% Ficoll 70; 20 mM sodium phosphate pH 6.5, 50 mM NaCl, 1 mM DTT, 25 °C; CSP of W237 amide. The settings on record: both partners purified.

What is called Kd is the free concentration of one partner at which half of the binding sites on the other are occupied at equilibrium, for simple one-to-one binding.

Read-outs that look alike come from different tables or passages of the source. Where no end group is shown, it is not given here. [ ]: non-standard residue; d: D form. Lys(Me3) = C[N+](C)(C)CCCC[C@H](N)C(=O)O; Lys(Me2) = CN(C)CCCC[C@H](N)C(=O)O

Description for PHD of ING4: These contained 50 or 10 µM uniformly -^15N enriched PHD in 20 mM sodium phosphate pH 6.5, 50 mM NaCl, 1 mM perdeuterated dithiotreitol, 5% (v/v) ^2H2O, and 0.01% (w/v) NaN3, plus different concentrations of Ficoll 70. […] Thus, the NMR titrations were completed in less than 24 h. NMR spectra were recorded at 25 °C on a BRUKER Avance III 800 spectrometer equipped with a TCI cryogenically cooled probe. At a concentration of 50 µM PHD, ^1H-^15N Heteronuclear Single Quantum Coherence (HSQC) spectra could be recorded in about 2 h with sufficient quality to measure the chemicals shift perturbations on peptide addition. At 10 µM PHD concentration, HSQC were recorded with only 16 t1 points and a ^15N spectral width of 10 ppm. […] In this way, the full titration of ING4-PHD with the histone peptide could be measured in less than 24 h.
Next, we measured the affinity of the binding in presence of Ficoll, by means of a NMR titration of the PHD with H3K4me3 peptide but in presence of 15% Ficoll (Figure 2). For binding analysis, we used the backbone amide signal of amino acid W237 because it experiences a large CSP upon peptide binding and is well isolated in a region of the spectrum with few other signals. […] This makes it necessary to reduce the protein concentration of the experiment.
On the other hand, the presence of 15% Ficoll 70 lowered the signal to noise ratio of the NMR experiment as signals got broader due to the increased viscosity of sample. So, we had to decrease the protein concentration of the experiment but not so much as to lose the signals in the noise. […] In these conditions, we could record ^1H-^15N HSQC experiments in 2 h and complete the titration in less than 1 day.
Once we got the optimum conditions, we did the titration by NMR on a sample of 10 µM PHD of ING4 in the presence of increasing amounts of H3K4me3 peptide (Figure 3).
Titrations at different percentages of Ficoll (0, 5, and 10 %) were done by NMR in a same manner as the titration at 15% Ficoll.

`CNCCCC[C@H](NC(=O)[C@@H](NC(=O)[C@H](CCCNC(=N)N)NC(=O)[C@H](C)N)[C@@H](C)O)C(=O)N[C@@H](CCC(N)=O)C(=O)N[C@H](C(=O)N[C@@H](C)C(=O)N[C@@H](CCCNC(=N)N)C(=O)N[C@@H](CCCCN)C(=O)N[C@@H](CO)C(=O)N[C@H](C(=O)NCC(=O)NCC(=O)N[C@@H](CCCCN)C(=O)N[C@@H](C)C(=O)N[C@@H](Cc1ccc(O)cc1)C(=O)O)[C@@H](C)O)[C@@H](C)O` [H3K4me1]: the Kd at PHD of ING4 is 12 ± 4 µM.
Still for that read-out and setting: in the case of `C[C@H](N)C(=O)N[C@@H](CCCNC(=N)N)C(=O)N[C@H](C(=O)N[C@@H](CCCCN(C)C)C(=O)N[C@@H](CCC(N)=O)C(=O)N[C@H](C(=O)N[C@@H](C)C(=O)N[C@@H](CCCNC(=N)N)C(=O)N[C@@H](CCCCN)C(=O)N[C@@H](CO)C(=O)N[C@H](C(=O)NCC(=O)NCC(=O)N[C@@H](CCCCN)C(=O)N[C@@H](C)C(=O)N[C@@H](Cc1ccc(O)cc1)C(=O)O)[C@@H](C)O)[C@@H](C)O)[C@@H](C)O` [H3K4me2] it was 1.4 ± 0.6 µM.
`C[C@H](N)C(=O)N[C@@H](CCCNC(=N)N)C(=O)N[C@H](C(=O)N[C@@H](CCCC[N+](C)(C)C)C(=O)N[C@@H](CCC(N)=O)C(=O)N[C@H](C(=O)N[C@@H](C)C(=O)N[C@@H](CCCNC(=N)N)C(=O)N[C@@H](CCCCN)C(=O)N[C@@H](CO)C(=O)N[C@H](C(=O)NCC(=O)NCC(=O)N[C@@H](CCCCN)C(=O)N[C@@H](C)C(=O)N[C@@H](Cc1ccc(O)cc1)C(=O)O)[C@@H](C)O)[C@@H](C)O)[C@@H](C)O` [H3K4me3]: the Kd at PHD of ING4 came to 0.4 ± 0.3 µM; on PHD of ING4 (absence of Ficoll (0%), NMR, 20 mM sodium phosphate pH 6.5, 50 mM NaCl, 25 °C, read-out: KD), 3.9 ± 0.7 µM.

B1: histone H3 peptide (residues 1-15 plus C-terminal Tyr) dimethylated at lysine 4 (peptide)
peptide: ART[Lys(Me2)]QTARKSTGGKAY
notes: histone H3 N-terminal tail, residues 1-15; extra Tyr residue at the C-terminus for concentration measurement by UV absorbance; also called H3K4me2
Regarding B1, the equilibrium dissociation constant (Kd) in assay [1] was determined as 1.4 ± 0.6 µM.

B2: histone H3 peptide (residues 1-15 plus C-terminal Tyr), unmethylated at lysine 4 (peptide)
peptide: ARTKQTARKSTGGKAY
notes: histone H3 N-terminal tail, residues 1-15; extra Tyr residue at the C-terminus for concentration measurement by UV absorbance; also called H3K4me0; unmethylated histone H3 tail
For the molecule B2, the Kd in assay [1] is 100 ± 10 µM.

B3: histone H3 peptide (residues 1-15 plus C-terminal Tyr) trimethylated at lysine 4 (peptide)
peptide: ART[Lys(Me3)]QTARKSTGGKAY
notes: histone H3 N-terminal tail, residues 1-15; extra Tyr residue at the C-terminus for concentration measurement by UV absorbance; also called H3K4me3; H3K4me3 peptide
Consider B3, for which the figures for the Kd in assay [2] and in assay [1] were 3.9 ± 0.7 µM and 0.4 ± 0.3 µM, respectively.

The values are drawn from publication PMC7072245, “Macromolecular Crowding Increases the Affinity of the PHD of ING4 for the Histone H3K4me3 Mark” (Biomolecules, 2020).
